This note sets out measurements from ChEMBL document CHEMBL1153701, “Synthesis and evaluation of antiallodynic and anticonvulsant activity of novel amide and urea derivatives of valproic acid analogues” (2009).

The test system of assay [1] is Mus musculus. Nature of the assay: Antiepileptic activity in CF1 mouse assessed as inhibition of maximal electroshock-induced seizures at 30 mg/kg, ip after 4 hrs. Format: functional, organism-based. On the set-up: dose 30 mg/kg. On the technique in general: In the maximal electroshock model the usual endpoint is tonic extension of the hind limbs.
Assay [2] relates to Mus musculus. Nature of the assay: Antiepileptic activity in CF1 mouse assessed as inhibition of subcutaneous pentylenetetrazole-induced seizures at 300 mg/kg, ip after 0.5 hrs. The format is functional, organism-based. On the set-up: dose 300 mg/kg.
The subject of assay [3] is Mus musculus. In words: Neurotoxicity in CF1 mouse assessed as protection against motor impairment at 30 mg/kg, ip after 0.5 hrs by rotarod test. The format is functional, organism-based. On the set-up: dose 30 mg/kg.
In assay [4] the test system is Rattus norvegicus. Nature of the assay: Anticonvulsant activity in ip dosed albino Sprague-Dawley rat assessed as protection against pilocarpine-induced seizure. The format is functional.
Assay [5] relates to Mus musculus. Nature of the assay: Antiepileptic activity in CF1 mouse assessed as inhibition of subcutaneous pentylenetetrazole-induced seizures at 300 mg/kg, ip after 4 hrs. Format: functional, organism-based. Details: dose 300 mg/kg.
For assay [6], the system named is Mus musculus. Nature of the assay: Antiepileptic activity in CF1 mouse assessed as inhibition of subcutaneous pentylenetetrazole-induced seizures at 100 mg/kg, ip after 4 hrs. Format: functional, organism-based. Details: dose 100 mg/kg.
Assay [7] relates to Mus musculus. In words: Neurotoxicity in CF1 mouse assessed as protection against motor impairment at 30 mg/kg, ip after 4 hrs by rotarod test. Format: functional, organism-based. On the set-up: dose 30 mg/kg.
Assay [8] deals with Mus musculus. Nature of the assay: Antiepileptic activity in CF1 mouse assessed as inhibition of subcutaneous pentylenetetrazole-induced seizures at 30 mg/kg, ip after 0.5 hrs. On the set-up: dose 30 mg/kg. The format is functional, organism-based.
Assay [9] deals with Mus musculus. Nature of the assay: Antiepileptic activity in CF1 mouse assessed as inhibition of maximal electroshock-induced seizures at 100 mg/kg, ip after 4 hrs. The format is functional, organism-based. Details: dose 100 mg/kg.
The subject of assay [10] is Rattus norvegicus. Nature of the assay: Anticonvulsant activity in albino Sprague-Dawley rat assessed as protection against pilocarpine-induced seizure at 200 mg/kg, ip. Format: functional, organism-based. On the set-up: dose 200 mg/kg.
Assay [11] relates to Mus musculus. In words: Antiepileptic activity in CF1 mouse assessed as inhibition of maximal electroshock-induced seizures at 30 mg/kg, ip after 0.5 hrs. Format: functional, organism-based. On the set-up: dose 30 mg/kg.
Assay [12] concerns Mus musculus. Nature of the assay: Antiepileptic activity in CF1 mouse assessed as inhibition of subcutaneous pentylenetetrazole-induced seizures at 100 mg/kg, ip after 0.5 hrs. Format: functional, organism-based. On the set-up: dose 100 mg/kg.
Assay [13] concerns Rattus norvegicus. Nature of the assay: Antiallodynic activity in rat assessed as protection against spinal nerve ligation-induced neuropathic pain at 80 mg/kg, ip after 240 mins. The format is functional, organism-based. On the set-up: dose 80 mg/kg.
The subject of assay [14] is Mus musculus. In words: Antiepileptic activity in CF1 mouse assessed as inhibition of maximal electroshock-induced seizures at 300 mg/kg, ip after 4 hrs. Format: functional, organism-based. Details: dose 300 mg/kg.
For assay [15], the system named is Mus musculus. Nature of the assay: Neurotoxicity in CF1 mouse assessed as protection against motor impairment at 100 mg/kg, ip after 4 hrs by rotarod test. Format: functional, organism-based. On the set-up: dose 100 mg/kg. A general note: Falling from the rotarod earlier than controls is read as motor impairment.
Assay [16] deals with Mus musculus. Nature of the assay: Neurotoxicity in CF1 mouse assessed as protection against motor impairment at 100 mg/kg, ip after 0.5 hrs by rotarod test. Format: functional, organism-based. On the set-up: dose 100 mg/kg.
The test system of assay [17] is Mus musculus. In words: Neurotoxicity in CF1 mouse assessed as protection against motor impairment at 300 mg/kg, ip after 4 hrs by rotarod test. The format is functional, organism-based. Details: dose 300 mg/kg.
The test system of assay [18] is Mus musculus. In words: Antiepileptic activity in CF1 mouse assessed as inhibition of subcutaneous pentylenetetrazole-induced seizures at 30 mg/kg, ip after 4 hrs. Details: dose 30 mg/kg. The format is functional, organism-based.
Assay [19] deals with Mus musculus. Nature of the assay: Antiepileptic activity in CF1 mouse assessed as inhibition of maximal electroshock-induced seizures at 100 mg/kg, ip after 0.5 hrs. The format is functional, organism-based. Details: dose 100 mg/kg.
The test system of assay [20] is Mus musculus. In words: Antiepileptic activity in CF1 mouse assessed as inhibition of maximal electroshock-induced seizures at 300 mg/kg, ip after 0.5 hrs. Format: functional, organism-based. On the set-up: dose 300 mg/kg.
In assay [21] the test system is Rattus norvegicus. Nature of the assay: Anticonvulsant activity in albino Sprague-Dawley rat assessed as protection against pilocarpine-induced seizure at 130 mg/kg, ip treated after 30 mins of pilcarpine challenge. The format is functional, organism-based. On the set-up: dose 130 mg/kg.
For assay [22], the system named is Rattus norvegicus. In words: Anticonvulsant activity in albino Sprague-Dawley rat assessed as protection against pilocarpine-induced seizure at 65 mg/kg, ip. The format is functional, organism-based. Details: dose 65 mg/kg.
Assay [23] deals with Mus musculus. In words: Antiepileptic activity in ip dosed CF1 mouse assessed as inhibition of maximal electroshock-induced seizures. The format is functional.
The test system of assay [24] is Rattus norvegicus. In words: Antiallodynic activity in ip dosed rat assessed as protection against spinal nerve ligation-induced neuropathic pain. Format: functional.
Assay [25] deals with Mus musculus. In words: Neurotoxicity in CF1 mouse assessed as protection against motor impairment at 300 mg/kg, ip after 0.5 hrs by rotarod test. On the set-up: dose 300 mg/kg. Format: functional, organism-based.
In assay [26] the test system is Rattus norvegicus. Nature of the assay: Antiallodynic activity in rat assessed as protection against spinal nerve ligation-induced neuropathic pain at 80 mg/kg, ip after 180 mins. Format: functional, organism-based. On the set-up: dose 80 mg/kg.
For assay [27], the system named is Rattus norvegicus. Nature of the assay: Antiallodynic activity in rat assessed as protection against spinal nerve ligation-induced neuropathic pain at 80 mg/kg, ip after 30 mins. On the set-up: dose 80 mg/kg. The format is functional, organism-based.
For assay [28], the system named is Rattus norvegicus. In words: Antiallodynic activity in rat assessed as protection against spinal nerve ligation-induced neuropathic pain at 80 mg/kg, ip after 120 mins. Format: functional, organism-based. Details: dose 80 mg/kg.
Assay [29] relates to Rattus norvegicus. In words: Antiallodynic activity in rat assessed as protection against spinal nerve ligation-induced neuropathic pain at 80 mg/kg, ip after 60 mins. Details: dose 80 mg/kg. Format: functional, organism-based.
Assay [30] concerns Rattus norvegicus. Nature of the assay: Anticonvulsant activity in albino Sprague-Dawley rat assessed as protection against pilocarpine-induced seizure at 200 mg/kg, ip treated after 30 mins of pilcarpine challenge. The format is functional, organism-based. Details: dose 200 mg/kg.
Assay [31] deals with Rattus norvegicus. In words: Anticonvulsant activity in albino Sprague-Dawley rat assessed as protection against pilocarpine-induced seizure at 100 mg/kg, ip. The format is functional, organism-based. On the set-up: dose 100 mg/kg.
Assay [32] is filed under the species Rattus norvegicus. Nature of the assay: Ratio of ED50 for antiallodynic activity in rat assessed as protection against spinal nerve ligation-induced neuropathic pain to ED50 for antiepileptic activity in rat by maximal electroshock-induced seizures assay. Format: functional.
The test system of assay [33] is Rattus norvegicus. In words: Anticonvulsant activity in albino Sprague-Dawley rat assessed as protection against pilocarpine-induced seizure at 450 mg/kg, ip. The format is functional, organism-based. Details: dose 450 mg/kg.
The subject of assay [34] is Rattus norvegicus. Nature of the assay: Anticonvulsant activity in albino Sprague-Dawley rat assessed as protection against pilocarpine-induced seizure at 600 mg/kg, ip treated after 30 mins of pilcarpine challenge. Format: functional, organism-based. On the set-up: dose 600 mg/kg.

Each structure is given as a SMILES string. Activity calls are given as the source filed them. The calls are words filed in the database; no cut-off is given here.

With `CCC(C(N)=O)C(C)(C)C` (stereo not given), the result in assay [1], in [3], in [5], in assay [6], in assay [7] and in assay [8] was inactive. The result in [9], in [11], in [12], in [13], in [15] and in assay [16] was inactive. For the same compound, the result in [17], in assay [18], in assay [19] and in assay [20] was inactive. In addition, the result in assay [2], in assay [10] and in assay [14] was Active. The ED50 in assay [4] came to 257 mg/kg. For the same compound, the ED97 in assay [4] came out at 451 mg/kg.
Regarding `CCCC(C(N)=O)C(C)CC` (stereo not given), the outcome in assay [1], in assay [3], in assay [5], in [6], in [7] and in assay [8] was inactive. Moreover, the outcome in [9], in assay [11], in [12], in [14], in [15] and in assay [16] was inactive. In addition, the result in assay [17] and in assay [18] was inactive. For the same compound, the result in [2], in [21], in assay [22] and in assay [20] was Active. For the same compound, the ED50 in assay [4] is 84 mg/kg; in assay [24], 49 mg/kg. Besides, in assay [4], the ED97 amounted to 149 mg/kg. Further, the ED50 entry in [23] was “inactive”.
Consider `CCCCC(CC)C(=O)NC(N)=O` (stereo not given), for which the result in assay [25], in assay [2] and in assay [20] was Active. The outcome in assay [1], in [3], in [5], in assay [26], in assay [6] and in [7] was inactive. Moreover, the result in assay [8], in assay [9], in [11], in assay [27], in assay [12] and in [13] was inactive. Also, the outcome in [14], in assay [15], in assay [16], in [17], in assay [18] and in assay [28] was inactive. Besides, in assay [29], the result was inactive. Besides, in assay [4], the ED50 was 247 mg/kg. Besides, the ED97 in assay [4] came out at 439 mg/kg.
`CCCC(C(=O)NC(N)=O)C(C)C` (stereo not given): the result in [1], in assay [5], in assay [26], in assay [6], in [8] and in assay [9] was inactive. For the same compound, the outcome in assay [11], in assay [27], in assay [17], in assay [18], in assay [28] and in [29] was inactive. The result in [19] and in [20] was inactive. The outcome in assay [2], in [30], in assay [12] and in assay [14] was Active.
On to `CC(C)(C)CC(=O)NC(N)=O`, for which the result in assay [25], in assay [2], in assay [31] and in assay [20] was Active. The outcome in assay [1], in assay [3], in assay [5], in assay [6], in assay [7] and in [8] was inactive. In addition, the outcome in assay [9], in assay [11], in assay [14], in assay [15], in [17] and in assay [18] was inactive. In [19], the result was inactive. In addition, the results for the ED50 in assay [23] and in assay [24] were 64 mg/kg and 74 mg/kg, respectively. Further, the ratio in [32] was determined as 0.86.
For `CCCC(C(N)=O)C(C)(C)C` (stereo not given), the result in [1], in assay [3], in [5], in [6], in [7] and in [8] was inactive. In addition, the outcome in assay [11], in assay [12], in assay [15] and in [18] was inactive. Besides, the outcome in [2], in assay [21], in assay [22], in [14] and in [20] was Active.
For `CC(C)C(C)C(N)=O` (stereo not given), the result in assay [33] and in [34] was Active. Moreover, the result in assay [25], in [1], in assay [2], in [3], in [5] and in assay [6] was inactive. The result in [7], in [8], in assay [9], in assay [11], in assay [12] and in [14] was inactive. The result in assay [15], in [16], in assay [17], in [18], in [19] and in assay [20] was inactive.

What is called ED50 is the dose at which the effect has come halfway, by size or by number of responders.
